Reference: US9586950B2 (MERCK SHARP & DOHME CORP., priority 2012, dated 2017)
Read-outs that look alike come from different tables or passages of the source.

Legend:
human orexin-2 receptor [1] = biological target: T1, human orexin-2 receptor (Homo sapiens (Human), UniProt O43614); experiment: FLIPR Ca2+ Flux Assay, hOX2R FLIPR; assay type: cell-based; conditions: CHO cells, 70 pM Ala-6,12 human orexin-A agonist
Experimental: (§1) In a typical experiment the OX1 and OX2 receptor antagonistic activity of the compounds of the present invention was determined in accordance with the following experimental method. For intracellular calcium measurements, Chinese hamster ovary (CHO) cells expressing the rat orexin-1 receptor or the human orexin-2 receptor, are grown in Iscove's modified DMEM containing 2 mM L-glutamine, […], 1% hypoxanthine-thymidine supplement, 100 U/ml penicillin, 100 μg/ml streptomycin and 10% heat-inactivated fetal calf serum (FCS). The cells are seeded at 20,000 cells/well into Becton-Dickinson black 384-well clear bottom sterile plates coated with poly-D-lysine. All reagents were from GIBCO-Invitrogen Corp. The seeded plates are incubated overnight at 37° C. and 5% CO2. Ala-6,12 human orexin-A as the agonist is prepared as a 1 mM stock solution in 1% bovine serum albumin (BSA) and diluted in assay buffer (HBSS containing 20 mM HEPES, 0.1% BSA and 2.5 mM probenecid, pH7.4) for use in the assay at a final concentration of 70 pM. Test compounds are prepared as 10 mM stock solution in DMSO, then diluted in 384-well plates, first in DMSO, then assay buffer. On the day of the assay, cells are washed 3 times with 100 μl assay buffer and then incubated for 60 min (37° C., 5% CO2) in 60 μl assay buffer containing 1 μM Fluo-4AM ester, 0.02% pluronic acid, and 1% BSA. The dye loading solution is then aspirated and cells are washed 3 times with 100 μl assay buffer. 30 μl of that same buffer is left in each well. Within the Fluorescent Imaging Plate Reader (FLIPR, Molecular Devices), test compounds are added to the plate in a volume of 25 μl, incubated for 5 min and finally 25 μl of agonist is added. Fluorescence is measured for each well at 1 second intervals for 5 minutes and the height of each fluorescence peak is compared to the height of the fluorescence peak induced by 70 pM Ala-6,12 orexin-A with buffer in place of antagonist. […] Alternatively, compound potency can be assessed by a radioligand binding assay (described in Bergman et. al. Bioorg. Med. Chem. Lett. 2008, 18, 1425-1430) in which the inhibition constant (Ki) is determined in membranes prepared from CHO cells expressing either the OX1 or OX2 receptor. The intrinsic orexin receptor antagonist activity of a compound which may be used in the present invention may be determined by these assays.

human orexin-2 receptor [2] = biological target: T1, human orexin-2 receptor; experiment: radioligand binding assay, hOX2R BIND
Experimental: as §1

[3] = biological target: hOX1R (orexin-1 receptor) (Rattus norvegicus, UniProt P56718); experiment: FLIPR Ca2+ Flux Assay, hOX1R FLIPR; assay type: cell-based; conditions: CHO cells, 70 pM Ala-6,12 human orexin-A agonist
Experimental: as §1

[4] = membranes from CHO cells expressing OX2 receptor, read-out: hOX2R BIND hKi

T1 sequence (O43614 whole entry): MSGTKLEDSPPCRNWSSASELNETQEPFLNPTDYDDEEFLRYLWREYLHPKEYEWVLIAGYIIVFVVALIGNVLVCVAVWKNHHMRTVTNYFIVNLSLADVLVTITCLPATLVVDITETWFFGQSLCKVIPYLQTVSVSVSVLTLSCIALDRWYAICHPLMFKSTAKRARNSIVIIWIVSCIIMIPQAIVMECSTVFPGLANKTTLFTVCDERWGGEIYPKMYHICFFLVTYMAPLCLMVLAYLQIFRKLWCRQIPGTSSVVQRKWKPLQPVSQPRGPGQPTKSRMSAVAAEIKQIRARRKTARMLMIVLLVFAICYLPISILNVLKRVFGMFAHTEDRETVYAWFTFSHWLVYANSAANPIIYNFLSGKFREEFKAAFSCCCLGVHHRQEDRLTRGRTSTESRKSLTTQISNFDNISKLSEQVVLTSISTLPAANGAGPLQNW

Row | Structure (SMILES) | IC50 (human orexin-2 receptor [1]) [µM] | Ki (human orexin-2 receptor [2]; [4]) [µM] | IC50 [3] [µM] | Ki (human orexin-2 receptor [2]) [µM]
1 | COC(=O)c1c(C#N)ccnc1O[C@@H]1CC[C@@H](C)N(C(=O)c2ccc(F)cc2-n2nccn2)C1 [Example 5, methyl 4-cyano-2-{[(3R,6R)-1-{[4-fluoro-2-(2H-1,2,3-triazol-2-yl)phenyl]carbonyl}-6-methylpiperidin-3-yl]oxy}pyridine-3-carboxylate] | 0.0218 | 0.00066 | 1.01 | 
2 | COC(=O)c1c(C#N)ccnc1O[C@@H]1CC[C@@H](C)N(C(=O)c2ccc(F)cc2-c2noc(C)n2)C1 [Example 12, methyl 4-cyano-2-{[(3R,6R)-1-{[4-fluoro-2-(5-methyl-1,2,4-oxadiazol-3-yl)phenyl]carbonyl}-6-methylpiperidin-3-yl]oxy}pyridine-3-carboxylate] | 0.0302 | 0.0012 |  | 
3 | COC(=O)c1c(C#N)ccnc1O[C@@H]1CC[C@@H](C)N(C(=O)c2c(F)cccc2-c2ncccn2)C1 [Example 24, methyl 4-cyano-2-({(3R,6R)-1-[(2-fluoro-6-pyrimidin-2-ylphenyl)carbonyl]-6-methylpiperidin-3-yl}oxy)pyridine-3-carboxylate] | 0.0328 | 0.00042 |  | 
4 | COC(=O)c1c(C#N)ccnc1O[C@@H]1CC[C@@H](C)N(C(=O)c2ccccc2-n2nccn2)C1 [Example 1, Methyl 4-cyano-2-{[(3R,6R)-6-methyl-1-{[2-(2H-1,2,3-triazol-2-yl)phenyl]carbonyl}piperidin-3-yl]oxy}pyridine-3-carboxylate] | 0.019 | 0.00046 | 0.749 | 
5 | COC(=O)c1c(C#N)ccnc1O[C@@H]1CC[C@@H](C)N(C(=O)c2cc(F)ccc2-n2nccn2)C1 [Example 6, methyl 4-cyano-2-{[(3R,6R)-1-{[5-fluoro-2-(2H-1,2,3-triazol-2-yl)phenyl]carbonyl}-6-methylpiperidin-3-yl]oxy}pyridine-3-carboxylate] | 0.0182 | 0.00042 | 0.971 | 
6 | COC(=O)c1c(C#N)ccnc1O[C@@H]1CC[C@@H](C)N(C(=O)c2cccc(C)c2-n2nccn2)C1 [Example 16, methyl 4-cyano-2-{[(3R,6R)-6-methyl-1-{[3-methyl-2-(2H-1,2,3-triazol-2-yl)phenyl]carbonyl}piperidin-3-yl]oxy}pyridine-3-carboxylate] | 0.0277 | 0.00052 |  | 
7 | COC(=O)c1c(C#N)ccnc1O[C@@H]1CC[C@@H](C)N(C(=O)c2ccccc2-c2nc(C)no2)C1 [Example 2, Methyl 4-cyano-2-{[(3R,6R)-6-methyl-1-{[2-(3-methyl-1,2,4-oxadiazol-5-yl)phenyl]carbonyl}piperidin-3-yl]oxy}pyridine-3-carboxylate] | 0.0208 | 0.00037 | 0.584 | 
8 | COC(=O)c1c(C#N)ccnc1O[C@@H]1CC[C@@H](C)N(C(=O)c2c(F)cccc2-c2nc(C)no2)C1 [Example 9, methyl 4-cyano-2-{[(3R,6R)-1-{[2-fluoro-6-(3-methyl-1,2,4-oxadiazol-5-yl)phenyl]carbonyl}-6-methylpiperidin-3-yl]oxy}pyridine-3-carboxylate] | 0.0388 | 0.0011 |  | 
9 | COC(=O)c1c(C#N)ccnc1O[C@@H]1CC[C@@H](C)N(C(=O)c2ccc(F)cc2-c2nc(C)no2)C1 [Example 15, methyl 4-cyano-2-{[(3R,6R)-1-{[4-fluoro-2-(3-methyl-1,2,4-oxadiazol-5-yl)phenyl]carbonyl}-6-methylpiperidin-3-yl]oxy}pyridine-3-carboxylate] | 0.0318 | 0.0022 | 3.08 | 
10 | COC(=O)c1c(C#N)ccnc1O[C@@H]1CC[C@@H](C)N(C(=O)c2ccccc2-c2noc(C)n2)C1 [Example 10, methyl 4-cyano-2-{[(3R,6R)-6-methyl-1-{[2-(5-methyl-1,2,4-oxadiazol-3-yl)phenyl]carbonyl}piperidin-3-yl]oxy}pyridine-3-carboxylate] | 0.0065 | 0.00053 | 0.698 | 
11 | COC(=O)c1c(C#N)ccnc1O[C@@H]1CC[C@@H](C)N(C(=O)c2cccc(F)c2-n2nccn2)C1 [Example 4, methyl 4-cyano-2-{[(3R,6R)-1-{[3-fluoro-2-(2H-1,2,3-triazol-2-yl)phenyl]carbonyl}-6-methylpiperidin-3-yl]oxy}pyridine-3-carboxylate] | 0.0157 | 0.00044 | 1.02 | 
12 | COC(=O)c1c(C#N)ccnc1O[C@@H]1CC[C@@H](C)N(C(=O)c2c(C)cccc2-n2nccn2)C1 [Example 19, methyl 4-cyano-2-{[(3R,6R)-6-methyl-1-{[2-methyl-6-(2H-1,2,3-triazol-2-yl)phenyl]carbonyl}piperidin-3-yl]oxy}pyridine-3-carboxylate] | 0.0169 | 0.00026 | 0.208 | 
13 | COC(=O)c1c(C#N)ccnc1O[C@@H]1CC[C@@H](C)N(C(=O)c2ccc(C)cc2-n2nccn2)C1 [Example 17, methyl 4-cyano-2-{[(3R,6R)-6-methyl-1-{[4-methyl-2-(2H-1,2,3-triazol-2-yl)phenyl]carbonyl}piperidin-3-yl]oxy}pyridine-3-carboxylate] | 0.0243 | 0.00058 |  | 
14 | COC(=O)c1c(C#N)ccnc1O[C@@H]1CC[C@@H](C)N(C(=O)c2cc(F)ccc2-c2ncccn2)C1 [Example 23, methyl 4-cyano-2-({(3R,6R)-1-[(5-fluoro-2-pyrimidin-2-ylphenyl)carbonyl]-6-methylpiperidin-3-yl}oxy)pyridine-3-carboxylate] | 0.032 | 0.00047 | 0.417 | 
15 | COC(=O)c1c(C#N)ccnc1O[C@@H]1CC[C@@H](C)N(C(=O)c2cc(F)ccc2-c2nc(C)no2)C1 [Example 8, methyl 4-cyano-2-{[(3R,6R)-1-{[5-fluoro-2-(3-methyl-1,2,4-oxadiazol-5-yl)phenyl]carbonyl}-6-methylpiperidin-3-yl]oxy}pyridine-3-carboxylate] | 0.0249 | 0.00044 | 1.47 | 
16 | COC(=O)c1c(C#N)ccnc1O[C@@H]1CC[C@@H](C)N(C(=O)c2c(F)cccc2-n2nccn2)C1 [Example 7, methyl 4-cyano-2-{[(3R,6R)-1-{[2-fluoro-6-(2H-1,2,3-triazol-2-yl)phenyl]carbonyl}-6-methylpiperidin-3-yl]oxy}pyridine-3-carboxylate] | 0.024 | 0.00033 | 0.432 | 
17 | COC(=O)c1c(C#N)ccnc1O[C@@H]1CC[C@@H](C)N(C(=O)c2cccc(F)c2-c2noc(C)n2)C1 [Example 11, methyl 4-cyano-2-{[(3R,6R)-1-{[3-fluoro-2-(5-methyl-1,2,4-oxadiazol-3-yl)phenyl]carbonyl}-6-methylpiperidin-3-yl]oxy}pyridine-3-carboxylate] | 0.0162 | 0.0005 | 0.956 | 
18 | COC(=O)c1c(C#N)ccnc1O[C@@H]1CC[C@@H](C)N(C(=O)c2ccc(OC)nc2-n2nccn2)C1 [Example 3, methyl 4-cyano-2-{[(3R,6R)-1-{[6-methoxy-2-(2H-1,2,3-triazol-2-yl)pyridin-3-yl]carbonyl}-6-methylpiperidin-3-yl]oxy}pyridine-3-carboxylate] | 0.0338 | 0.0019 |  | 
19 | COC(=O)c1c(C#N)ccnc1O[C@@H]1CC[C@@H](C)N(C(=O)c2ccccc2-n2ncnn2)C1 [Example 25] | 0.007 |  | 1.29 | 0.00076
20 | COC(=O)c1c(C#N)ccnc1O[C@@H]1CC[C@@H](C)N(C(=O)c2c(F)cccc2-c2noc(C)n2)C1 [Example 14, methyl 4-cyano-2-{[(3R,6R)-1-{[2-fluoro-6-(5-methyl-1,2,4-oxadiazol-3-yl)phenyl]carbonyl}-6-methylpiperidin-3-yl]oxy}pyridine-3-carboxylate] | 0.0145 | 0.00099 |  | 
21 | COC(=O)c1c(C#N)ccnc1O[C@@H]1CC[C@@H](C)N(C(=O)c2cccc(F)c2-c2ncccn2)C1 [Example 21, methyl 4-cyano-2-({(3R,6R)-1-[(3-fluoro-2-pyrimidin-2-ylphenyl)carbonyl]-6-methylpiperidin-3-yl}oxy)pyridine-3-carboxylate] | 0.0363 | 0.0012 |  | 
22 | COC(=O)c1c(C#N)ccnc1O[C@@H]1CC[C@@H](C)N(C(=O)c2ccccc2C2CCC2)C1 [Example 26, Methyl 4-cyano-2-(((3R,6R)-1-(2-cyclobutylbenzoyl)-6-methylpiperidin-3-yl)oxy)nicotinate] | 0.0193 | 0.00026 |  | 
